Source: patent publication US20260035384A1, “COMPOUND CONTAINING CYCLOHEXYL” (CHIA TAI TIANQING PHARMACEUTICAL GROUP CO., LTD., priority 2022, published 2026)
pIC50: −log10 of the molar value. Where two headings read alike, the source gives them in different places.

Experiments:
[1] = biological target: T1, AR in LNCaP cells (Homo sapiens, UniProt P10275, T878A); test: Assay on degradation activity for AR in LNCaP cells (HTRF human androgen receptor detection kit); format: cell-based; conditions: 24 h incubation; for DC50: HTRF; for Dmax: maximum degradation rate
T1 construct: Assay on Degradation Activity for AR in LNCaP Cells; endogenous in cells; host or cells: LNCaP cells
T1 sequence (P10275 1-920 T878A): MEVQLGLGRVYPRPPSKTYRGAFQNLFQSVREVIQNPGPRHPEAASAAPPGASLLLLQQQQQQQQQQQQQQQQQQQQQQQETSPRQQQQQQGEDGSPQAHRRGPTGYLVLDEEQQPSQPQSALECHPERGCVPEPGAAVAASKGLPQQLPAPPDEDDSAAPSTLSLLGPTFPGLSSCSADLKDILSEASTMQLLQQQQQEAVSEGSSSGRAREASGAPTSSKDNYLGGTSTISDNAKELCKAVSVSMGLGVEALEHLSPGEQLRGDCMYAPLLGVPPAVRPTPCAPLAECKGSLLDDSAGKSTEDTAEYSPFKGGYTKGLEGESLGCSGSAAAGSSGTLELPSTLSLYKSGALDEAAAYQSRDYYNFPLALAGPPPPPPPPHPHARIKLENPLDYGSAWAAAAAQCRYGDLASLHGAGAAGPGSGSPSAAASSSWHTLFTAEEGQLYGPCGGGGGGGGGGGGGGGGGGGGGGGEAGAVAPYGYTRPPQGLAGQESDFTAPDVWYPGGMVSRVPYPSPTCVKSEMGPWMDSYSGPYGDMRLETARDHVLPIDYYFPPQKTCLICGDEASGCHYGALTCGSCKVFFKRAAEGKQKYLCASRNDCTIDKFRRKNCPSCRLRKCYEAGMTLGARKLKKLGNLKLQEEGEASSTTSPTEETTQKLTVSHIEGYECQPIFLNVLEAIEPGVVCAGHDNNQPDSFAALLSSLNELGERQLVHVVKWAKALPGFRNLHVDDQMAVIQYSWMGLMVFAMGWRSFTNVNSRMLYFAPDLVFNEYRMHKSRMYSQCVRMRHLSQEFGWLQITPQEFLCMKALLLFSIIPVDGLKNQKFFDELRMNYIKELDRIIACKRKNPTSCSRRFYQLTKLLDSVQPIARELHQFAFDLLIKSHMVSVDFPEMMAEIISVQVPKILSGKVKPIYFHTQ
Description: The detection was carried out using the HTRF HUMAN ANDROGEN RECEPTOR DETECTION KIT (cisbio, 64ANDRPEG), 4× Supplemented Lysis buffer was prepared using the Blocking reagent stock solution (100×) and Lysis buffer stock solution (4×), and 1× Supplemented Lysis buffer was prepared using the 4× Supplemented Lysis buffer and ddH2O. Premixed antibody solutions were prepared using Detection buffer, Androgen Receptor Eu Cryptate antibody, and Androgen Receptor d2 antibody.
LNCaP cells in a good growth state were taken, washed with PBS, digested with pancreatin, and added with 2% CSS—FBS phenol red-free 1640 complete medium to terminate the digestion. The cells were collected by using a centrifuge tube, adjusted to a cell density of 1×10^6 cells/mL, and seeded in a 96-well plate (100 μL/well). The cells were incubated overnight in a cell incubator. Compounds were added using a nanoliter pipettor such that the final concentrations of the compounds were 500 nM-0.488 nM. Two duplicate wells were set for each concentration, and meanwhile, a control was set. After another 24 h of incubation in the cell incubator, the medium was pipetted out, the 1× Supplemented Lysis buffer was added at 40 μL/well to lyse the cells. After the cells were oscillated for 40 min at room temperature, 16 μL of the cell lysate was added to a 384-well plate, the Premixed antibody solutions were added at 4 μL/well, and the mixture was left to stand at 25° C. for 2 h. Fluorescence values were detected at 665 nm/620 nm using an Envision microplate reader, the four-parameter analysis was performed, the dose-response curves were fit, and DC50 (the concentration of the drug when the degradation rate reaches 50%) and Dmax (the maximum degradation rate) were calculated.

[2] = test system: LNCaP cells; test: Assay on inhibitory activity for LNCaP cell proliferation (CCK-8); format: cell-based; conditions: 168 h incubation
Description: (§1) LNCaP cells in a good growth state were taken, washed with PBS, digested with pancreatin, and added with 2% CSS—FBS phenol red-free 1640 complete medium to terminate the digestion. The cells were collected by using a centrifuge tube, adjusted to a cell density of 1×10^5 cells/mL, and seeded in a 96-well plate (100 μL/well). Meanwhile, compounds were added using a nanoliter pipettor such that the final concentrations of the compounds were 10000 nM-0.61 nM. Two duplicate wells were set for each concentration, and meanwhile, a control was set. After another 168 h of incubation in the cell incubator, the detection reagent CCK-8 (manufacturer: Dojindo, 10 μL/well) was added.

[3] = Mouse pharmacokinetics; format: in vivo, ICR mice; conditions: ICR, mouse, plasma; for AUC: read-out: AUC
Description: ICR mice weighing 18-22 g were randomized into groups of 9 after 3-5 days of acclimatization, and then intragastrically given the test compound solution at a dose of 10 mg/kg and intravenously injected with the test compound solution at a dose of 1 mg/kg.
Blood sampling time points for the intragastrical administration group were 15 min, 0.5 h, 1 h, 2 h, 3 h, 4 h, 6 h, 8 h, 10 h, and 24 h, and blood sampling time points for the intravenous injection administration group were […], 15 min, 0.5 h, 1 h, 2 h, 4 h, 6 h, 8 h, 10 h, and 24 h; blood was collected from the orbit to prepare plasma samples to be tested. 30 μL of each of the plasma samples to be tested and a standard curve sample were taken, and an acetonitrile solution containing an internal standard was added. Supernatants were obtained by protein precipitation, diluted, and then assayed by LC/MS/MS. Pharmacokinetic parameters were fitted using a non-compartmental model (see Table 6).

[4] = test system: VCaP cells; test: Assay on inhibitory activity for VCaP cell proliferation (CCK-8); format: cell-based; conditions: 168 h incubation
Description: as §1, with “2.1 Assay on inhibitory activity for VCaP cell proliferation VCaP” for “LNCaP”, “5%” for “2%”, “DMEM” for “1640”

[5] = po, 10 mg/kg, Mouse i.g. 10 mpk

| pIC50 ([2]; Homo sapiens) | pIC50 ([4]; Homo sapiens, VCaP, 168 h) | Structure (SMILES) | other results |
| --- | --- | --- | --- |
| > 6.00 |  | N#Cc1ccc(O[C@H]2CC[C@H](NC(=O)c3ccc(N4CCC(CN5CCc6c(ccc7c(C8CCC(=O)NC8=O)noc67)C5)CC4)nn3)CC2)cc1Cl (stereo partly shown) [Compound 19] | DC50 [1]: ≤ 20 nM; Dmax [1]: > 80%; clearance ([3]; iv, 1 mg/kg, Mouse i.v. 1 mpk): 5.7 mL/min/kg; half-life ([3]; iv, 1 mg/kg, Mouse i.v. 1 mpk): 7.4 h; AUC ([3]; iv, 1 mg/kg, Mouse i.v. 1 mpk): 2600 ng·h/mL; half-life [3, 5]: 49.9 h; bioavailability ([3]; po, 10 mg/kg, Mouse i.g. 10 mpk vs i.v. 1 mpk): 41.6%; AUC [3, 5]: 10800 ng·h/mL; Cmax ([3]; po, 10 mg/kg, Mouse i.g. 10 mpk, read-out: Cmax): 562 ng/mL |
| > 6.00 |  | N#Cc1ccc(O[C@H]2CC[C@H](NC(=O)c3ccc(N4CCC(CN5CCc6ccc7c(C8CCC(=O)NC8=O)noc7c6CC5)CC4)nn3)CC2)cc1Cl (stereo partly shown) [Compound 20] | DC50 [1]: ≤ 20 nM; Dmax [1]: > 80% |
| > 6.00 | > 8.00 | N#Cc1ccc(O[C@H]2CC[C@H](NC(=O)c3cnc(N4CCC(CN5CCc6c(ccc7c(C8CCC(=O)NC8=O)noc67)C5)CC4)nc3)CC2)cc1Cl (stereo partly shown) [Compound 121] |  |
| > 6.00 | > 7.00 | N#Cc1ccc(O[C@H]2CC[C@H](NC(=O)c3cnc(N4CCC(CN5CCc6ccc7c(C8CCC(=O)NC8=O)noc7c6CC5)CC4)nc3)CC2)cc1Cl (stereo partly shown) [Compound 122] | DC50 [1]: ≤ 20 nM; Dmax [1]: > 80% |
| > 6.00 | > 6.00 | N#Cc1ccc(O[C@H]2CC[C@H](NC(=O)c3cnc(N4CCN(CC5Cc6ccc7c(C8CCC(=O)NC8=O)noc7c6C5)CC4)nc3)CC2)cc1Cl (stereo partly shown) [Compound 123] |  |
| > 6.00 | > 7.00 | N#Cc1ccc(O[C@H]2CC[C@H](NC(=O)c3cnc(N4CCC5(CC4)CC(CN4Cc6ccc7c(C8CCC(=O)NC8=O)noc7c6C4)C5)nc3)CC2)cc1Cl (stereo partly shown) [Compound 128] |  |
| > 6.00 | > 7.00 | N#Cc1ccc(O[C@H]2CC[C@H](NC(=O)c3cnc(N4CCC5(CC4)CC(CN4CCc6ccc7c(C8CCC(=O)NC8=O)noc7c6C4)C5)nc3)CC2)cc1Cl (stereo partly shown) [Compound 129] |  |
| > 6.00 | > 7.00 | N#Cc1ccc(O[C@H]2CC[C@H](NC(=O)c3cnc(N4CCC5(CC4)CC(CN4CCc6c(ccc7c(C8CCC(=O)NC8=O)noc67)C4)C5)nc3)CC2)cc1Cl (stereo partly shown) [Compound 130] |  |
| > 6.00 | > 7.00 | N#Cc1ccc(O[C@H]2CC[C@H](NC(=O)c3cnc(N4CCC5(CC4)CC(CN4CCc6ccc7c(C8CCC(=O)NC8=O)noc7c6CC4)C5)nc3)CC2)cc1Cl (stereo partly shown) [Compound 131] |  |
| > 6.00 | > 6.00 | N#Cc1ccc(O[C@H]2CC[C@H](NC(=O)c3cnc(N4CCC(CN5Cc6ccc7c(C8CCC(=O)NC8=O)coc7c6C5)CC4)nc3)CC2)cc1Cl (stereo partly shown) [Compound 132] |  |
| > 6.00 | > 6.00 | N#Cc1ccc(O[C@H]2CC[C@H](NC(=O)c3cnc(N4CCC(CN5CCc6ccc7c(C8CCC(=O)NC8=O)coc7c6C5)CC4)nc3)CC2)cc1Cl (stereo partly shown) [Compound 133] |  |
| > 6.00 | > 7.00 | N#Cc1ccc(O[C@H]2CC[C@H](NC(=O)c3cnc(N4CCC(CN5CCc6c(ccc7c(C8CCC(=O)NC8=O)coc67)C5)CC4)nc3)CC2)cc1Cl (stereo partly shown) [Compound 134] |  |
| > 6.00 | > 6.00 | N#Cc1ccc(O[C@H]2CC[C@H](NC(=O)c3cnc(N4CCN(CC5Cc6ccc7c(C8CCC(=O)NC8=O)coc7c6C5)CC4)nc3)CC2)cc1Cl (stereo partly shown) [Compound 136] |  |
|  |  | N#Cc1ccc(O[C@H]2CC[C@H](NC(=O)c3cnc(N4CCN(CC5Cc6ccc7c(C8CCC(=O)NC8=O)coc7c6C5)CC4)nc3)CC2)cc1Cl (stereo partly shown) [Compound 137] | pIC50 [4]: > 6.00; pIC50 [2]: > 6.00 |
| > 6.00 | > 6.00 | N#Cc1ccc(O[C@H]2CC[C@H](NC(=O)c3cnc(N4CCC(CN5CCc6ccc7c(N8CCC(=O)NC8=O)coc7c6C5)CC4)nc3)CC2)cc1Cl [Compound 139] |  |
| > 6.00 | > 6.00 | N#Cc1ccc(O[C@H]2CC[C@H](NC(=O)c3cnc(N4CC(CN5CCc6c(ccc7c(C8CCC(=O)NC8=O)noc67)C5)C4)nc3)CC2)cc1Cl (stereo partly shown) [Compound 142] |  |
| > 6.00 | > 6.00 | N#Cc1ccc(O[C@H]2CC[C@H](NC(=O)c3ncc(N4CCC(CN5CCc6c(ccc7c(C8CCC(=O)NC8=O)noc67)C5)CC4)cn3)CC2)cc1Cl (stereo partly shown) [Compound 146] |  |

| Structure (SMILES) | pIC50 ([2]; Homo sapiens) | pIC50 ([4]; Homo sapiens, VCaP, 168 h) | other results |
| --- | --- | --- | --- |
| N#Cc1ccc(O[C@H]2CC[C@H](NC(=O)c3ccc(N4CCC5(CC4)CC(CN4CCc6ccc7c(C8CCC(=O)NC8=O)noc7c6C4)C5)nn3)CC2)cc1Cl (stereo partly shown) [Compound 35] | > 6.00 |  | DC50 [1]: ≤ 20 nM; Dmax [1]: > 80%; pIC50 ([4]; Homo sapiens): > 7.00 |
